Test results as given in patent US20190382827A1, “USE OF MICROBIAL METABOLITES FOR TREATING DISEASES” (Yeda Research and Development Co. Ltd., priority 2015, published 2019).

Assays:
[1] = system: NLRP6 inflammasome; conditions: for taurine-mediated increase in IL-18 production: organoids, histamine and spermine supplemented in addition to taurine
Method: (I, J) IL-18 production by WT (I) and Nlrp6^−/− (J) colonic organoids incubated with either taurine or taurine+histamine+spermine.
(K) Representative organoid images from experiments shown in (I) and (J).

[2] = molecular target: T1, colonic NLRP6 inflammasome (Mus musculus, UniProt Q91WS2); test: Metabolites in the drinking water of mice, colonic inflammasome readouts; type: in vivo; conditions: for colonic lamina propria hematopoietic cell populations: WT mice drinking for 14 days, FACS; for colonic caspase-1 activation (activated caspase-1 levels): WT mice, drinking water for 14 days
T1 construct: in colon tissue obtained from WT mice drinking taurine for 14 days; from tissue; host or cells: colon of living WT mice (SPF for A4; germ-free for A5)
T1 sequence (Q91WS2 1-869): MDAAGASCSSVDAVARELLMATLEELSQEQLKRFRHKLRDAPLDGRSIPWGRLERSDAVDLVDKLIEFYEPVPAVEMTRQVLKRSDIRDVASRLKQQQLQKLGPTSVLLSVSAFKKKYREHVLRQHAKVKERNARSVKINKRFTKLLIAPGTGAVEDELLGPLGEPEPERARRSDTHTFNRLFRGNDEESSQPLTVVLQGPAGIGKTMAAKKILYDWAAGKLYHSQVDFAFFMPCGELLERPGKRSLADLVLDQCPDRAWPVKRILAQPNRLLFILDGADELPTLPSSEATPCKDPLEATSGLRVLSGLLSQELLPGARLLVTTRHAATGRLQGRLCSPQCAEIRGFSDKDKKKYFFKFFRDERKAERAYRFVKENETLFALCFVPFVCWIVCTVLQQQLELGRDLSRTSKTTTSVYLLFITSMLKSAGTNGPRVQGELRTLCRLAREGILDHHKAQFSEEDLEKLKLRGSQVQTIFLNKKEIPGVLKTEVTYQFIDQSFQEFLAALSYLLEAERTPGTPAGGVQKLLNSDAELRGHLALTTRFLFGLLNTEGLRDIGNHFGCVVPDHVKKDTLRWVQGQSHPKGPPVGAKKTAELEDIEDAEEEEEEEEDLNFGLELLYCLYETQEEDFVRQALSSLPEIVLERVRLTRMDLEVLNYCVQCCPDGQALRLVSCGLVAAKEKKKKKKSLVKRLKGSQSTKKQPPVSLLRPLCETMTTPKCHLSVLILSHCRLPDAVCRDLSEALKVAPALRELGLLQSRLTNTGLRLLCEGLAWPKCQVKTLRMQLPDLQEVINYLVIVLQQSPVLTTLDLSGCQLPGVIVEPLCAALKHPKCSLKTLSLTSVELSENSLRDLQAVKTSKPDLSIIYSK
From the text: (A, B) Immunoblot analysis (A) and quantification (B) of pro-caspase-1 (p45) and cleaved caspase-1 (p20) in colon tissue obtained from WT mice drinking taurine for 14 days.
(C) IL-18 production by colon explants obtained from WT mice drinking taurine for 14 days.
(D) Ang4 expression in sorted epithelial cells (CD45^−EpCAM^+) obtained from WT mice drinking taurine for 14 days.
(I) IL-18 production by colon explants from WT, Asc^−/− or Nlrp6^−/− mice drinking taurine for 14 days.
(J, K) Immunoblot analysis (J) and quantification (K) of pro-caspase-1 (p45) and cleaved caspase-1 (p20) in colon tissue obtained from WT mice drinking histamine with or without spermine for 14 days.
Colons were excised and washed thoroughly with PBS, homogenized in RIPA buffer containing protease inhibitors, incubated for 20 min in 4° C. and centrifuged for 20 min, 14,000 rpm at 4° C. Samples were separated on 15% acrylamide gels and transferred onto nitrocellulose membranes. Western blot analysis was performed using anti-caspase 1 p20 polyclonal antibody (Adipogen, AG-20B-0042B-C100) and Goat anti mouse antibody (Jackson ImmunoResearch, 115-035-003). Band density was calculated using ImageJ software.
Concentrations of IL-18 in the serum or culture supernatants were measured using ELISA. Plates were coated over night with IL-18 (MBL, B004-2), incubated for 4 hours with supernatant or serum. Samples were then washed and plates were incubated with anti-mouse IL-18-biotin antibody (D048-6 MBL) for 1 hour and HRP-Avidin (BioLegend) for 1 hour before quantification.
Tissues were preserved in RNAlater solution (Ambion) and subsequently homogenized in Tri Reagent (Fox et al.). RNA was purified according to the manufacturer's instructions. Two microgram of total RNA was used to generate cDNA (HighCapacity cDNA Reverse Transcription kit; Applied Biosystems). RealTime-PCR was performed using gene-specific primer/probe sets (Applied Biosystems) and Kapa Probe Fast qPCR kit (Kapa Biosystems) on a Viia7 instrument (Applied Biosystems). PCR conditions were 95° C. for 20 s, followed by 40 cycles of 95° C. for 3 s and 60° C. for 30 s. Data were analyzed using the deltaCt method with hprt serving as the reference housekeeping gene.
To provide in-vivo validation to the above metabolite activities and to further characterize their effects on the host-microbiome interface, we administered taurine to mice in the drinking water. […] To test this notion directly, either LPS (a known ‘signal I’), taurine, or both were administered to GF WT mice. […] In contrast to taurine, in-vivo administration of histamine and spermine reduced the levels of activated caspase-1 (FIGS. 6J and 6K), while not altering the composition of hematopoietic cells in the lamina propria (FIG. 13D).

[3] = system: commensal bacteria; test: Anaerobic microbiota cultures supplemented with metabolites; parameters: species or system mouse; conditions: anaerobic culturing

Structure (SMILES) | organoid (spheroid) growth or morphology [1] | taurine-mediated increase in IL-18 production [1] | colonic lamina propria hematopoietic cell populations [2] | colonic caspase-1 activation (activated caspase-1 levels) [2] | composition of anaerobic microbiota cultures [3] | IL-18 secretion ([1]; WT organoids) | IL-18 induction ([2]; Asc-/- or Nlrp6-/- mice drinking taurine for 14 days) | IL-18 secretion ([2]; colon explants from WT mice drinking for 14 days) | IL-18 mRNA levels ([2]; colon of WT mice drinking for 14 days) | epithelial Ang4 production ([2]; sorted epithelial cells from WT mice drinking for 14 days)
NCCCNCCCCNCCCN [spermine] | not affecting | diminished | not altering | reduced | did not feature significant compositional alterations | – | – | – | – | –
NCCc1c[nH]cn1 [histamine] | not affecting | diminished | not altering | reduced | did not feature significant compositional alterations | – | – | – | – | –
NCCS(=O)(=O)O [taurine] | not affecting | – | not accompanied by alterations | marked activation | did not feature significant compositional alterations | induced | no IL-18 induction | marked activation | not affecting | marked activation
